Consider three molecules from patent publication US10864273B2, “Thiobase compounds for photodynamic therapy” (CASE WESTERN RESERVE UNIVERSITY, priority 2015, dated 2020).

A short description of data set [1]: Estimated maximum UVA treatment depth in tissue from absorption cutoff and penetration depth curve. As to conditions: cutoff ε=1000 M^−1 cm^−1. The source says: Longer wavelengths of light are able to penetrate deeper into tissues due to less scattering and reduced absorption by natural biomolecules (FIG. 5). Therefore, the redshifted absorption of 2,4dtThy as compared to 4tThd opens up the possibility for it to be effectively used as a photosensitizer in deeper tissue UVA-activated therapies. The maximum treatment depth for these two compounds was estimated by defining an arbitrary absorption cutoff of ε=1000 M^−1 cm^−1 (i.e., 371 nm for 4tThd and 395 nm for 2,4dtThy; FIG. 5). […] In order to account for this, the area under the penetration depth curve (FIG. 5) was integrated up to the respective absorption cutoff for each compound. Using this integration method the total increase in treatment depth of 2,4dtThy relative to 4tThd was determined to be about 67%. This increase likely serves as an upper bound limit for the actual relative increase because the molar absorptivity coefficients of the compounds will no doubt play a role. However, because the absorption of radiation at a given wavelength is not only dependent on a photosensitizer's molar absorptivity coefficients but also on its concentration in the tissue, our best estimation is that 2,4dtThy could facilitate UVA-activated treatment in tissues 23 to 67% deeper than those that can be effectively treated by 4tThd.

The nature of data set [2]: Singlet oxygen quantum yield by phosphorescence at 1270 nm, thiothymine series. In kind it is physicochemical. As to conditions: for ΦΔ singlet oxygen quantum yield: O2-saturated acetonitrile solution, 355 nm excitation, phenalenone standard. As for the experimental part:
Singlet oxygen phosphorescence measurements were performed using a modified Fluorolog-3 spectrometer (HORIBA, Jobin Yvon) in conjunction with a NIR sensitive photomultiplier tube (H10330A-45, Hamamatsu). A 450 W Xe lamp was used for steady state excitation to record singlet oxygen phosphorescence spectra and a Spectra Physics GCR-150-30 Nd:YAG laser (355 nm, 7 ns pulse width) was used for pulsed excitation to collect singlet oxygen phosphorescence decay traces at 1270 nm, which were stored on a digital oscilloscope (TDS 360, Tektronics).
O2-saturated acetonitrile solutions of the thiobases and standard (phenalenone) with matching absorbance at 355 nm (O.D.=0.3 at 1 cm optical path length) were prepared. The measurements were performed in a 1×1 cm quartz cell. Singlet oxygen quantum yields were determined from the phosphorescence intensity at 1270 nm at the end of the laser pulse using phenalenone as standard (ΦΔ=0.98).
While ultrafast internal conversion to the ground state and the low triplet yield in thymidine provide the nucleobase with its high degree of photostability, the near-unity triplet yields in the thiothymine series account for their potent photo-sensitization properties. We have obtained evidence for significant photoreactivity of these triplet states by performing time-resolved energy transfer experiments to molecular oxygen, thus generating singlet oxygen, as monitored by its characteristic phosphorescence at 1270 nm (FIG. 3 and FIG. 4). The singlet oxygen quantum yields for 4tThd and 2,4dtThy were determined using phenalenone as a standard (ΦΔ=0.98) and are summarized in Table 1. It should be remarked that quantification of the singlet oxygen yield is one of the primary methods used to determine the efficacy of a prospective photosensitizer for phototherapeutic applications. To our knowledge, this is the first work to report the singlet oxygen yield of 2,4dtThy. […] Consistent with the spectroscopic analysis herein, the singlet oxygen yield of 2tThy is smaller than those of 4tThd and 2,4dtThy.

Data set [3] in a line: Steady-state absorption spectroscopy, thymine series. The following applies: phosphate buffer solution at pH 7.4. Type of data set: physicochemical. The text has this: 2-thiothymine (2tThy, 98% purity) was obtained from AK Scientific, 4-thiothymidine (4tThd, 99% purity) was obtained from Carbosynth Ltd., and 2-thiothymidine (2tThd) and 2,4-dithiothymine (2,4dtThy) were obtained from Sigma Aldrich. All compounds were used as received. The purity of these compounds was ensured by using fluorescence spectroscopy and by comparison with the published absorption maxima and their corresponding extinction coefficients. Phosphate buffer solutions were freshly prepared using 0.12 g of sodium dihydrogen phosphate and 0.089 g of disodium hydrogen phosphate dissolved in 100 mL of ultrapure water and adjusted to pH 7.4 using a 2 M NaOH solution. Steady-state absorption spectra were measured using a Cary 100 Bio spectrometer. All absorption spectra were corrected for the solvent background by subtraction of the absorption of the solvent.
Specifically, sulfur substitution of the C2 carbonyl in thymine results in about a 10 nm redshift in the absorption maximum, whereas substitution at the C4 position results in a redshift of about 70 nm. Remarkably, double-substitution results in about a 100 nm redshift of the lowest-energy absorption band of thymidine (ΔE=9905 cm^−1), without an appreciable change in the magnitude of the extinction coefficient at the corresponding wavelengths (1×10^4 M^−1 cm^−1). Replacement of an oxygen atom by a sulfur atom in a carbonyl bond is expected to shift the absorption spectrum to the red because the thiocarbonyl is weaker than the carbonyl bond and the excited electronic states in thiocarbonyl compounds are typically found at lower energies. However, the difference in bond strengths between a carbonyl and thiocarbonyl bond cannot solely explain the large spectral shift observed between 2tThy/2tThd and 4tThd. Furthermore, the redshift in the absorption spectrum of 2,4dtThy cannot simply be expressed as a linear combination of the absorption spectra of the 2tThy/2tThd and 4tThd derivatives. […] Glycosylation of 2tThy, generating 2tThd, results in a 2 nm redshift in the absorption maximum and about 2-fold increase in the molar absorptivity coefficients (FIG. 1B). The same effect has been previously documented in the natural bases and in other thiobases. Therefore, glycosylation of 2,4dtThy to form 2,4-dithiothymidine is expected to redshift the absorption spectrum slightly and to increase the molar absorptivity coefficients.

Data set [4] can be described thus: Femtosecond broadband transient absorption spectroscopy of the thiothymine series (intersystem crossing, triplet yield). In kind it is physicochemical. As to conditions: for τISC intersystem crossing lifetime: probe 600 nm. On the procedure:
Femtosecond transient absorption spectroscopy was performed using a Ti— Sapphire regenerative amplifier laser system (Libra-HE, Coherent, Inc.; 800 nm, 100 fs, 4.0 W at 1 kHz). 2.6 W of the 800 nm beam were used to pump an optical parametric amplifier (TOPAS, Quantronix/Light Conversion) to generate the excitation beam at selected wavelengths of 320, 335, and 360 nm. Contributions to the excitation beam from other wavelengths and polarizations were removed by a reflective wavelength filter (λ-filter) and a Glan-Taylor polarizer, respectively, and the polarization was randomized using a depolarizing plate in order to prevent rotational effects from contributing to the dynamics, as described in details elsewhere.
A Helios spectrometer (Ultrafast Systems, LLC.) was used for pump-probe measurements. A fraction of the fundamental (800 nm) beam from the Libra-HE was used to generate white light continuum (WLC). The Helios spectrometer uses an optical delay line with a maximum delay of ˜3 ns for the 800 nm beam, which was used to pump a continuously-moving 2 mm CaF2 plate for generation of the WLC broadband probe pulse covering the spectral range from ˜320-700 nm. The probe light was then passed through a 730 nm low-pass dichroic optical filter, so as to block residual fundamental beam and to avoid saturating the complementary metal-oxide-semiconductor (CMOS) detectors. The probe pulse was then split into two beams, both of which were recollimated and focused into the optical fibers leading to their respective CMOS detectors. In this setup, one of the beams serves as reference, while the other is used to probe the sample of interest. A synchronized chopper wheel was used to block every other pump pulse, such that the difference in absorption between two consecutive measurements gives the transient spectrum. The excitation beam was attenuated to 1 μJ/pulse at the sample using a neutral density optical filter before entering the spectrometer. The excitation pulse was focused to a beam diameter three times larger than that of the probe beam at the sample position. Detection time windows of 20 and 200 ps were used in this work.
All solutions were prepared using pH 7.4 aqueous phosphate buffer, with a total phosphate concentration of 16 mM. The solution was continuously stirred in a 2 mm optical path length quartz cell (Starna Cells, Inc.) using a Teflon-coated magnetic stirring bar so as to bring fresh sample to the pump-probe region for each measurement. The solution in the cuvette was replaced with a fresh sample, from the same stock solution, every 5-7 scans, so that all scans had no more than 5% decrease in absorbance at the lowest-energy absorption-band maximum as determined by steady-state absorption spectroscopy.
All broadband transient absorption data were corrected for group velocity dispersion (GVD) of the WLC using a home-made LabView program (National Instruments, Inc.) as previously described. 3 Analysis of transient absorption kinetics was performed in Igor Pro 6.32A (WaveMetrics, Inc.) using the target analysis method, as described previously, and a sequential kinetic model convoluted with an instrument response function of ˜200 fs (FWHM). The instrument response was determined from the coherence signal of neat methanol generated at the sample cell. Global fitting analysis was performed using 15 to 30 representative kinetic traces covering the full range of probe wavelengths. At least three independent datasets (i.e., recorded on three different days) were used in the analysis and all uncertainties are reported as twice the standard deviation of the average lifetime. Decay associated spectra shown in FIG. 7A were extracted from the global fitting analysis of the transient decay traces taken every third probe wavelength across the entire WLC range.

For data set [5] the following is noted: cited from earlier work.
The next data set deals with bladder cancer. As to conditions: in conjunction with a low dose of UVA radiation; animal models; cited from earlier work.
The conditions of data set [6]: pH 7.4 phosphate buffer solution; previously reported values; cited from earlier work.
Another data set deals with cancerous cell lines. As to conditions: in conjunction with a low dose of UVA radiation; in vitro; cited from earlier work.
The next data set has as its system 3D human skin models. The following applies: in conjunction with a low dose of UVA radiation; lower epidermis of 3D human skin models; cited from earlier work.
The conditions of data set [7]: O2-saturated acetonitrile solution; previously measured / standard value; cited from earlier work.
The conditions of data set [8]: O2-saturated acetonitrile; literature / standard value; cited from earlier work.
Setting [9] is: pH 7.4 phosphate buffer solution.

Like-named read-outs stand apart in the source and are kept apart here.

For the molecule `Cc1c[nH]c(=S)[nH]c1=S` [2,4dtThy, 2,4-dithiothymine], in data set [1], the “wavelength at arbitrary absorption cutoff” value was 395 nm. In data set [2], the “1O2 yield lower than that of the corresponding thiouracil derivative” value came out at 6%, the singlet oxygen yield is ~50% and the “ΦΔ singlet oxygen quantum yield” value was 0.46 ± 0.02. Besides, in data set [3], the “maximum of lowest-energy absorption band” value was determined as 363 nm and the “ε at maximum of lowest-energy absorption band” value was “≈ 9.7×10^3 M^−1 cm^−1”. Also, in [4], the “increase in rate of intersystem crossing going from 2-thiothymine” value was found to be 3.5 fold, the “intersystem crossing rate increase relative to Thd” value came out at 4.2 fold and the triplet yield result is recorded as “approximately 90%”. In addition, in data set [4] (setting [9]), the “ΦT triplet quantum yield” value is listed as >0.9 and the “τISC intersystem crossing lifetime” value was 180±40 fs.

For the molecule `Cc1cn([C@H]2C[C@H](O)[C@@H](CO)O2)c(=O)[nH]c1=S` [4tThd, 4-thiothymidine], in data set [1], the “wavelength at arbitrary absorption cutoff” value was 371 nm. Moreover, in [5] (at 520 nm, previously reported, own determination in agreement), the triplet-triplet extinction coefficient is 2500 ± 700 M⁻¹ cm⁻¹. Also, in data set [5] (reference for relative actinometry), the “reported triplet yield of the reference compound” value is given as 1.0±0.1. In addition, the “treatment of bladder cancer” value with bladder cancer is reported as “treat bladder cancer in animal models”. Further, in [2], the “1O2 yield lower than that of the corresponding thiouracil derivative” value is reported as 14% and the “ΦΔ singlet oxygen quantum yield” value stood at 0.42 ± 0.02. The “ΦT triplet quantum yield” value in [6] is 0.85 ± 0.15. In data set [4], the “intersystem crossing rate increase relative to Thd” value was 3.2 fold. Moreover, the “τISC intersystem crossing lifetime” value in data set [4] (setting [9]) turned out to be 240 ± 20 fs. In addition, the “killing of cancerous cell lines” value in the data set with cancerous cell lines is listed as “effectively kill cancerous cell lines in vitro”. Moreover, in the data set on 3D human skin models, the “induction of cytotoxic lesions” value is given as “induce cytotoxic lesions in the lower epidermis of 3D human skin models”.

In the case of `O=C1C=Cc2cccc3cccc1c23` [phenalenone], the “ΦΔ singlet oxygen quantum yield” value in data set [7] and in [8] was 0.98 in each case.
